# Experimental data: paper PMC6013495, “Development of a Novel Backbone Cyclic Peptide Inhibitor of the Innate Immune TLR/IL1R Signaling Protein MyD88” (Scientific Reports, 2018)
# Numbered stars: 1 amine (or outer) side, 2 acyl side, 3 side chain; on linkers, the order of the positions; unused ones are H or OH. Bridge positions count the residues as written; N and C are the ends. Square brackets hold non-standard residues; d marks the D form. Ends that are not written are not given here. Peptide text beside a SMILES is read from it. N(6-aminohexyl)Gly = O=C(CN(CCCCCCN[*:3])[*:1])[*:2]; CO = O=C([*:1])[*:2]; Nlys = NCCCCNCC(=O)O
# B1: MyD88 inhibitor peptide (MyDI, RDVLPGT), unlabeled linear BB loop peptide (peptide)
# peptide: RDVLPGT-NH2
# notes: MyD88 BB loop heptamer; also called non-biotinylated linear peptide; MyD88 BB-loop decoy peptide; source: synthetic peptide (Fmoc chemistry on Rink amide MBHA resin, HPLC purified)
# B2: Biotinylated linear BB loop peptide RDVLPGT (Biotin-MyDI) (peptide)
# peptide: RDVLPGT
# modifications: also: biotinylated, position not given here
# notes: MyD88 BB loop heptamer; also called Biotinylated RDVLPGT; source: bought: Bio Basic Inc
# Key:
# [1] = tested on: THP-1 cells, TLR2 ligand Pam3CSK4; test: hTNFα production by THP-1 macrophages stimulated with Pam3CSK4 (TLR2); assay type: cell-based, human; conditions: THP-1, inhibitors 3 hr before Pam3CSK4, 24 h, ELISA
# Protocol: MyD88 function depends on dimerization through the TIR domain[37]. The RDVLPGT peptide corresponds to the region between the βB strand and the αB helix[18] […] We screened a library of backbone cyclized peptides to identify a metabolically stable derivative of the BB loop peptide that retains the binding and functional properties of the parent peptide. The library was designed using two non-natural building blocks as previously reported. […] Tryptophan was added to the N-terminal AGBU for quantification purposes (Fig. 1). […]
# Figure 3 c(MyD 4-4) blocks TLR-mediated macrophage activation. (A) THP-1 cells were treated with inhibitors for 3 hr prior to activation with the TLR2 ligand Pam3CSK4 200 pg/ml for 24 h. hTNFα levels were determined by ELISA. […] (B,C) Luminescence levels from the NFκB-luc murine RAW264.7 cells. […] NFκB-luc RAW264.7 cells were treated with inhibitors for 24 hr and then cells were stimulated with Pam3CSK4 (10 ng/ml) (C) or LPS (50 ng/ml) (D) for 4 hr and luminescence levels were determined. […] Human (h) TNFα levels were determined by ELISA at 24 hr. (F,G) NFκB-luc RAW264.7 cells were treated with the indicated compounds for 24 hr and then stimulated with Pam3CSK4 (F) or LPS (G) for 4 hr after which luminescence was determined. […]
# (§1) Cytokines were determined using human/mouse OptEIA sets (BD Biosciences, CA, USA) according to the manufacturer’s instructions.
# [2] = tested on: THP-1 cells, TLR4 ligand LPS; test: hTNFα production by THP-1 macrophages stimulated with LPS (TLR4); assay type: cell-based, human; conditions: THP-1, compound 3 hr before LPS, 24 hr, ELISA
# Protocol: Figure 3 c(MyD 4-4) blocks TLR-mediated macrophage activation. (A) THP-1 cells were treated with inhibitors for 3 hr prior to activation with the TLR2 ligand Pam3CSK4 200 pg/ml for 24 h. hTNFα levels were determined by ELISA. One representative experiment of three independent experiments is shown. Asterisks represent the significance between treated cells and untreated Pam3CSK4-stimulated control. Asterisks above a cross bar represent the comparison between treatment with c(MyD 4-4) and treatment with MyDI. (B,C) Luminescence levels from the NFκB-luc murine RAW264.7 cells. The different conditions were set according to preliminary assays of each cell line. NFκB-luc RAW264.7 cells were treated with inhibitors for 24 hr and then cells were stimulated with Pam3CSK4 (10 ng/ml) (C) or LPS (50 ng/ml) (D) for 4 hr and luminescence levels were determined. One representative experiment of three independent experiments is shown. […] Human (h) TNFα levels were determined by ELISA at 24 hr. (F,G) NFκB-luc RAW264.7 cells were treated with the indicated compounds for 24 hr and then stimulated with Pam3CSK4 (F) or LPS (G) for 4 hr after which luminescence was determined. […]
# as §1
# RAW264.7 NFκB-luc cells = test: Viability of NFκB-luc RAW264.7 cells; assay type: cell-based, mouse; conditions: 24 hr treatment
# THP-1 macrophages = assay type: cell-based, human
# Source text: MyD88 function depends on dimerization through the TIR domain[37]. The RDVLPGT peptide corresponds to the region between the βB strand and the αB helix[18] […] We screened a library of backbone cyclized peptides to identify a metabolically stable derivative of the BB loop peptide that retains the binding and functional properties of the parent peptide. The library was designed using two non-natural building blocks as previously reported. The method, called cycloscan, is based on the concept of screening focused backbone cyclic libraries with spatial diversity that maintain the original side chains of the active region in the protein (RDVLPGT), Backbone cyclization combines N-alkylation with cyclization. In the case of the MyD88 BB-loop decoy peptide RDVLPGT, the tertiary amide bond preceding proline served as one of the anchor sites and was therefore replaced by an N-Alkylated glycine building unit (AGBU) to allow backbone cyclization to the second AGBU at the N-terminus (Fig. 1). Tryptophan was added to the N-terminal AGBU for quantification purposes (Fig. 1). Following the above procedure 16 backbone cyclic peptides were prepared with various ring size and position of the urea bridge in the ring (Table S1). To screen the library, human THP-1 macrophages were pre-treated with the cyclic peptides and then stimulated with Pam3CSK4, a synthetic TLR2/1 lipopeptide agonist.
# [3] = Peptide stability in brush border membrane vesicles (BBMVs); assay type: in vitro ADME; conditions: rat intestinal BBMVs in MES buffer 50 mM pH 7.4, 37 °C, HPLC-MS, triplicate
# Protocol: The linear peptide and c(MyD 4-4) (10 µg/ml) were mixed with fresh plasma from male Wistar rats (Harlan, Israel) and incubated at 37 °C for 240 min. Triplicate samples were taken at time 0 and after 5, 30, 60, 120, 180 and 240 min. Rat brush border membrane vesicles (BBMV) were prepared by Ca^2+ precipitation from the combined duodenum, jejunum, and upper ileum of male rats as described[41],[42]. Briefly, intestines were washed with ice cold saline and separated from mucus. The intestinal mucosa was separated from the luminal surface and placed immediately into buffer containing […] KCl and 10 mM Tris–HCl (pH 7.5, 4 °C). The samples were then homogenated (Polytron PT 1200, Kinematica AG, Switzerland) and 10 mM CaCl2 was added. The homogenate was placed on a shaker for 30 min at 4 °C and then centrifuged 10,000 g for 10 min. The supernatant was separated and centrifuged at 48,000 g for 30 min and an additional two purification steps were undertaken by suspending the pellet in 300 mM mannitol and 10 mM Hepes/Tris (pH 7.5) and centrifuging at 24,000 g/h. […]
# To determine the concentration of the compounds, experimental samples were diluted 1:1 with ice-cold acetonitrile and centrifuged (11000 RPM, 10 min). […] The amount of the compounds was determined using high performance liquid chromatography mass spectrometry (HPLC-MS) Waters 2695 Separation Module, equipped with Micromass ZQ detector. […]
# [4] = Peptide stability in rat plasma; assay type: in vitro ADME; conditions: fresh plasma of male Wistar rats, 37 °C, HPLC-MS, triplicate; for stability in plasma: 10 µg/ml, up to 240 min
# Protocol: The linear peptide and c(MyD 4-4) (10 µg/ml) were mixed with fresh plasma from male Wistar rats (Harlan, Israel) and incubated at 37 °C for 240 min. Triplicate samples were taken at time 0 and after 5, 30, 60, 120, 180 and 240 min. Rat brush border membrane vesicles (BBMV) were prepared by Ca^2+ precipitation from the combined duodenum, jejunum, and upper ileum of male rats as described[41],[42]. Briefly, intestines were washed with ice cold saline and separated from mucus. The intestinal mucosa was separated from the luminal surface and placed immediately into buffer containing […] KCl and 10 mM Tris–HCl (pH 7.5, 4 °C). The samples were then homogenated (Polytron PT 1200, Kinematica AG, Switzerland) and 10 mM CaCl2 was added. The homogenate was placed on a shaker for 30 min at 4 °C and then centrifuged 10,000 g for 10 min. The supernatant was separated and centrifuged at 48,000 g for 30 min and an additional two purification steps were undertaken by suspending the pellet in 300 mM mannitol and 10 mM Hepes/Tris (pH 7.5) and centrifuging at 24,000 g/h. The quality of the BBMV purification was tested using the brush border membrane enzyme markers gamma-glutamyl transpeptidase (GGT), leucine amino peptidase (LAP) and alkaline phosphatase (Sigma-Aldrich, St Louis, MO). Peptides were mixed with purified BBMVs in MES buffer (2-(N-morpholino)ethanesulfonic acid, 50 mM pH 7.4) and incubated at 37 °C for 120 min. Triplicate samples were taken at time 0 and after 15, 30, 45, 60, 90, and 120 min.
# To determine the concentration of the compounds, experimental samples were diluted 1:1 with ice-cold acetonitrile and centrifuged (11000 RPM, 10 min). The supernatant was separated and evaporated (Vacuum Evaporation System, Labconco, Kansas City, MO). Samples were reconstituted with acetonitrile: water 70:30 and then centrifuged (11000 RPM, 10 min). The amount of the compounds was determined using high performance liquid chromatography mass spectrometry (HPLC-MS) Waters 2695 Separation Module, equipped with Micromass ZQ detector. The resulting solution (100 μl) was injected into the HPLC system. […]
# [5] = target: T1, recombinant fusion protein SUMO-MyD88-TIR (human MyD88 TIR domain, aa 150-296, fused to SUMO) (human, UniProt Q99836 150-296); test: ELISA; competitive binding: SUMO-MyD88-TIR (8 µg/ml) attached to polystyrene plates at 4 °C overnight, blocked with 1% BSA in PBS; 125 µM Biotin-MyDI together with 10, 1, 0.1 or 0 µM competitor for 30 min; Streptavidin-HRP, absorbance at 450 nm; conditions: both partners purified
# T1 construct: MyD88, human, TIR domain residues 150-296; Cloned with BamH/XhoI into the pETM-11 SUMO3GFP fusion vector; also called recombinant MyD88 TIR domain; Recombinant MyD88 TIR protein; source: E. coli BL21 C43 (DE3), purified (HIS-select Nickel Magnetic agarose beads, eluted with 300 mM imidazole)
# [6] = target: T1, recombinant fusion protein …; test: ELISA; SUMO fusion protein attached to ELISA plate wells; biotinylated peptide added at several concentrations; conditions: both partners purified
# T1 sequence (Q99836 150-296): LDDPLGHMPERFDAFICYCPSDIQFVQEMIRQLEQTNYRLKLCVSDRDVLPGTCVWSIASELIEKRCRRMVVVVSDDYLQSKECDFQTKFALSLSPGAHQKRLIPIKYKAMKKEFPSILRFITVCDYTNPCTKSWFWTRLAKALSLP
molecule,measurement,setting,value
NC(=O)[C@H]1CCS[C@@H]2C[C@]3(CCCN3C(=O)Cc3ccc(NC(=O)COc4ccc(Cl)cc4Cl)cc3)C(=O)N12 [ST2825],inhibition of hTNFα production,[1],did not block
same,inhibition of hTNFα production,[2],did not block
same,cytotoxicity,RAW264.7 NFκB-luc cells,highly cytotoxic
CC(C)C[C@@H]1NC(=O)[C@H](C(C)C)NC(=O)[C@H](CC(=O)O)NC(=O)[C@H](CCCNC(=N)N)NC(=O)CN(C(=O)[C@@H](N)Cc2c[nH]c3ccccc23)CCCCCCNC(=O)NCCCCCCN(CC(=O)NCC(=O)N[C@H](C(N)=O)[C@@H](C)O)C1=O [c(MyD6x6)] (H-W[N(6-aminohexyl)Gly]RDVL[N(6-aminohexyl)Gly]GT-NH2; linker 2-7 via CO),cytotoxicity,THP-1 macrophages,without causing cytotoxicity
CC(C)C[C@@H]1NC(=O)[C@H](C(C)C)NC(=O)[C@H](CC(=O)O)NC(=O)[C@H](CCCNC(=N)N)NC(=O)CN(C(=O)[C@@H](N)Cc2c[nH]c3ccccc23)CCCCNC(=O)NCCCCN(CC(=O)NCC(=O)N[C@H](C(N)=O)[C@@H](C)O)C1=O [c(MyD 4-4)] (H-W[Nlys]RDVL[Nlys]GT-NH2; linker 2-7 via CO),remaining at 2 h,"[3]; male, intestinal brush border membrane vesicles (BBMVs), 2 h, mean, read-out: peptide recovered at end of incubation with BBMVs",~80%
same,stability in plasma,[4],highly stable
same,"remaining at 4 h, 10 µg/ml","[4]; rat, 240 minutes, mean, read-out: starting material detected after incubation in plasma",> 90%
same,cytotoxicity,THP-1 macrophages,without causing cytotoxicity
RDVLPGT-NH2 [MyDI],stability with BBMVs,[3]; up to 120 min,rapidly degraded
same,stability in plasma,[4],rapidly degraded
B1,binding result,[5],binds
B2,binding result,[6],binds
